Measurements: the NIST ThermoML archive (doi:10.1021/acs.jced.8b00566)
Numbers after ± are expanded uncertainties.

How the values were obtained:
[1] = Molar enthalpy of transition or fusion; settings: Crystal; DSC
[2] = Crystal; DSC

Row | Molar enthalpy of transition or fusion [1] | Triple point temperature [2] | SMILES
1 | 10.8 ± 0.287 kcal/mol | 501.4 ± 0.8 K | C[C@]12CC[C@H](O)CC1=CC[C@@H]1[C@@H]2CC[C@]2(C)C(c3cccnc3)=CC[C@@H]12 [abiraterone]
2 | 6.17 ± 0.239 kcal/mol | 419.3 ± 0.8 K | CC(=O)O[C@H]1CC[C@@]2(C)C(=CC[C@@H]3[C@@H]2CC[C@]2(C)C(c4cccnc4)=CC[C@@H]32)C1 [abiraterone acetate]
